How the values were obtained:
[1] = target: Serine/threonine-protein kinase N2 (Homo sapiens) (UniProt Q16513); assay: Percentage PRK2 activity remaining in the presence of 2uM inhibitor
[2] = target: MAP kinase-interacting serine/threonine-protein kinase 2 (Homo sapiens) (UniProt Q9HBH9); assay: Percentage MNK2 activity remaining in the presence of 2uM inhibitor
[3] = target: T1, Serine/threonine-protein kinase BRSK2 (Homo sapiens) (UniProt Q8IWQ3); assay: Percentage BRSK2 activity remaining in the presence of 2uM inhibitor
T1 sequence (whole entry): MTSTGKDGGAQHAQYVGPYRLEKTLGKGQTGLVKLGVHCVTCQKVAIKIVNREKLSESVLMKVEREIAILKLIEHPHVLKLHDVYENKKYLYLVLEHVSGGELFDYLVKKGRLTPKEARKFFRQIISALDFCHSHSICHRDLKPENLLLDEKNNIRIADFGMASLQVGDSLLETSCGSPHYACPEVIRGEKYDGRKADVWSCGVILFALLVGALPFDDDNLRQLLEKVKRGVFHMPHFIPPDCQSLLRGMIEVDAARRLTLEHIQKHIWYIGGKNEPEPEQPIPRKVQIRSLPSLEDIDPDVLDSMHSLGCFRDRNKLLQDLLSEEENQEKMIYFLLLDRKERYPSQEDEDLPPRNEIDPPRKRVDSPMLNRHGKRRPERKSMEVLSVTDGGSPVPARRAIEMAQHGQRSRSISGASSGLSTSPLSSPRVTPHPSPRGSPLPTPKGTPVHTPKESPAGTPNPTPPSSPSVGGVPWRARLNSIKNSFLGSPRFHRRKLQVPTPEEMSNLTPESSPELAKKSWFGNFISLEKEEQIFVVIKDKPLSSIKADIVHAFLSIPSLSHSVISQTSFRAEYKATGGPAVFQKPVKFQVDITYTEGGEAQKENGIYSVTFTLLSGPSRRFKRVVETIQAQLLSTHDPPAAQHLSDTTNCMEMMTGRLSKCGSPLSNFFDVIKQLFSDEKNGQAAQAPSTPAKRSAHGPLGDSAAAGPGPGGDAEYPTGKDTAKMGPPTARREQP

[4] = target: T2, Eukaryotic elongation factor 2 kinase (Homo sapiens) (UniProt O00418); assay: Percentage EF2K activity remaining in the presence of 2uM inhibitor
T2 sequence (whole entry): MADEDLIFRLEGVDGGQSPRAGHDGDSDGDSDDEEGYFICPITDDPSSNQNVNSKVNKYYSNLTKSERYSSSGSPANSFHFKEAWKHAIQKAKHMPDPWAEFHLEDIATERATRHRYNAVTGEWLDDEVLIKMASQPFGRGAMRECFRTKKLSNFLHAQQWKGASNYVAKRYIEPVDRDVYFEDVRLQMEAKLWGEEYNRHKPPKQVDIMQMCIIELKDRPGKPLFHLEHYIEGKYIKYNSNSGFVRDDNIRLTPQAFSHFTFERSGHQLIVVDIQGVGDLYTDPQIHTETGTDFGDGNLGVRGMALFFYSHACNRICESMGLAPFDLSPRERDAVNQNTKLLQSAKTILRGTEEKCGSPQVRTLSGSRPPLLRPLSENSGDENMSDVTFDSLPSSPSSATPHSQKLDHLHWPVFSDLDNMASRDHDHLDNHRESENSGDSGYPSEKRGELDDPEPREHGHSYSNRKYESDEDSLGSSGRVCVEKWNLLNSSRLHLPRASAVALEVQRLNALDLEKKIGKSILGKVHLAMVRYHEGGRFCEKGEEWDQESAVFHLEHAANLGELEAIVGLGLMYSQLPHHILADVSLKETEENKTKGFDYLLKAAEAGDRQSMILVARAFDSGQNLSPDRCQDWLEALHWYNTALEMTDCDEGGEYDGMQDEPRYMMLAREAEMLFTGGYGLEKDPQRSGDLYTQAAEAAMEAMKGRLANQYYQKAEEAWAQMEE

[5] = target: T3, Dual specificity tyrosine-phosphorylation-regulated kinase 2 (Homo sapiens) (UniProt Q92630); assay: Percentage DYRK2 activity remaining in the presence of 2uM inhibitor
T3 sequence (whole entry): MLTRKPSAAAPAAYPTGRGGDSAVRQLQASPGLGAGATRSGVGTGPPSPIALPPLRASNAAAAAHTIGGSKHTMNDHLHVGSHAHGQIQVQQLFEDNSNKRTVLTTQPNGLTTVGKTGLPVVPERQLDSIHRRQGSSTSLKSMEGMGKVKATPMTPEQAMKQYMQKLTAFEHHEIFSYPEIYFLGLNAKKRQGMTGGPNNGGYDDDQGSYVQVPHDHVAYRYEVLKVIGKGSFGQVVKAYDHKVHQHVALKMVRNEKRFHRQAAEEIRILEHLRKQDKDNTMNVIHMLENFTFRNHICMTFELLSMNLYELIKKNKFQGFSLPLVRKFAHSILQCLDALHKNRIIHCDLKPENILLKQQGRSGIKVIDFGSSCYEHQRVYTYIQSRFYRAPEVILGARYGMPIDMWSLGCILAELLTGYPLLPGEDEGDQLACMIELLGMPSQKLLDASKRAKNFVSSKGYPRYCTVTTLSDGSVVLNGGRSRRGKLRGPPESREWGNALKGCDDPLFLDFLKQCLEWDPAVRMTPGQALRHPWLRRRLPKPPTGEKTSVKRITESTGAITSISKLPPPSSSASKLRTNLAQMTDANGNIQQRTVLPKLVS

[6] = target: Ribosomal protein S6 kinase alpha-1 (Homo sapiens) (UniProt Q15418); assay: Percentage RSK1 activity remaining in the presence of 2uM inhibitor; conditions: filed as antagonist
[7] = target: MAP kinase-interacting serine/threonine-protein kinase 1 (Homo sapiens) (UniProt Q9BUB5); assay: Percentage MNK1 activity remaining in the presence of 3uM inhibitor; conditions: filed as antagonist
[8] = target: RAC-beta serine/threonine-protein kinase (Homo sapiens) (UniProt P31751); assay: Percentage PKBbeta activity remaining in the presence of 3uM inhibitor
[9] = target: Calcium/calmodulin-dependent protein kinase type 1 (Homo sapiens) (UniProt Q14012); assay: Percentage CaMK1 activity remaining in the presence of 3uM inhibitor
[10] = target: Serine/threonine-protein kinase pim-2 (Homo sapiens, UniProt Q9P1W9); assay: Percentage PIM2 activity remaining in the presence of 3uM inhibitor
[11] = target: Serine/threonine-protein kinase N2 (Homo sapiens) (UniProt Q16513); assay: Percentage PRK2 activity remaining in the presence of 3uM inhibitor
[12] = target: Mitogen-activated protein kinase 3 (Homo sapiens) (UniProt P27361); assay: Percentage ERK1 activity remaining in the presence of 3uM inhibitor
[13] = target: Dual specificity tyrosine-phosphorylation-regulated kinase 1A (Homo sapiens) (UniProt Q13627); assay: Percentage DYRK1A activity remaining in the presence of 3uM inhibitor
[14] = target: Glycogen synthase kinase-3 beta (Homo sapiens, UniProt P49841); assay: Percentage GSK3-beta activity remaining in the presence of 3uM inhibitor
[15] = target: Rho-associated protein kinase 2 (Homo sapiens) (UniProt O75116); assay: Percentage ROCK2 activity remaining in the presence of 3uM inhibitor
[16] = target: Serine/threonine-protein kinase PAK 4 (Homo sapiens, UniProt O96013); assay: Percentage PAK4 activity remaining in the presence of 3uM inhibitor
Chain of Serine/threonine-protein kinase PAK 4 (O96013 whole entry, looked up): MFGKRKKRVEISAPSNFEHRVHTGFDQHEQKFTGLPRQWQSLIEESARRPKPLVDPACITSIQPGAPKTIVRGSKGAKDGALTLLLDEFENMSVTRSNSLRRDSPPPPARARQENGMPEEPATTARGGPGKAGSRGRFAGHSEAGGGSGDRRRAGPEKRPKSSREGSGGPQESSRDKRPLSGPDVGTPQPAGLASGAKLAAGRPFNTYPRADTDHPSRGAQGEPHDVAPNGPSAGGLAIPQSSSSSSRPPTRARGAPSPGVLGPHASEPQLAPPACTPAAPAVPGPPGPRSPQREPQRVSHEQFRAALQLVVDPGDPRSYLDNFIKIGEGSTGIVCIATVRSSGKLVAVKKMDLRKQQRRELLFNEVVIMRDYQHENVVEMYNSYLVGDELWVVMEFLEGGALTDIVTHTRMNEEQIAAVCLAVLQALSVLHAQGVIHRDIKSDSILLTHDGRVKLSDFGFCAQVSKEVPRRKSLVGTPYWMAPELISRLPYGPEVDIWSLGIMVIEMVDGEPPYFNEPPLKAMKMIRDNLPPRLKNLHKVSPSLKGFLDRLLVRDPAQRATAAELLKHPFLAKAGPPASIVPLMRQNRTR

Chain of Serine/threonine-protein kinase N2 (Homo sapiens) (Q16513 whole entry, looked up): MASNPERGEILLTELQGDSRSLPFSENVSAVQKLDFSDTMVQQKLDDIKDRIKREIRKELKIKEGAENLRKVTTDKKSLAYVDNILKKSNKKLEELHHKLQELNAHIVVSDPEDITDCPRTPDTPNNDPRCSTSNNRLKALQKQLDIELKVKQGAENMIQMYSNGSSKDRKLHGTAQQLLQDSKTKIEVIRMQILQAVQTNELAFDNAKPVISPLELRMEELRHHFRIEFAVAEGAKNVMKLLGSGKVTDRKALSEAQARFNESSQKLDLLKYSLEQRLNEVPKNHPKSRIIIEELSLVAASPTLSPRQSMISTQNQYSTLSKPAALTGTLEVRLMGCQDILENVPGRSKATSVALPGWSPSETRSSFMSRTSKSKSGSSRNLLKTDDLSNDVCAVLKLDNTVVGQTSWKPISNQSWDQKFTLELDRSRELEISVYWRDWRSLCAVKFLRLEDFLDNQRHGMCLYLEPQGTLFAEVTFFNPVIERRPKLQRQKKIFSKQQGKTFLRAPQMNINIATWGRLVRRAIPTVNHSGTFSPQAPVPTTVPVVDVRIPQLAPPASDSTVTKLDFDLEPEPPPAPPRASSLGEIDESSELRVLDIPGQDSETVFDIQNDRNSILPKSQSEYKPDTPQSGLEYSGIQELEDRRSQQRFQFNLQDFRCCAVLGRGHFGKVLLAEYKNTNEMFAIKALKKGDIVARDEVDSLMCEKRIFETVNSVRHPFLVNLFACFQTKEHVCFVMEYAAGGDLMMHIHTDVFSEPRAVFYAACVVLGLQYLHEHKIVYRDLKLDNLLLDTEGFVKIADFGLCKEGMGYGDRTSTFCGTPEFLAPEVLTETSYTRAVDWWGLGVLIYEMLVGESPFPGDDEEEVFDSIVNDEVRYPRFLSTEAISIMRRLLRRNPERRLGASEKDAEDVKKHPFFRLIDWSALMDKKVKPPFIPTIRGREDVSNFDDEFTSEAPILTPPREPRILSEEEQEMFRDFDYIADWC
Chain of Mitogen-activated protein kinase 3 (Homo sapiens) (P27361 whole entry): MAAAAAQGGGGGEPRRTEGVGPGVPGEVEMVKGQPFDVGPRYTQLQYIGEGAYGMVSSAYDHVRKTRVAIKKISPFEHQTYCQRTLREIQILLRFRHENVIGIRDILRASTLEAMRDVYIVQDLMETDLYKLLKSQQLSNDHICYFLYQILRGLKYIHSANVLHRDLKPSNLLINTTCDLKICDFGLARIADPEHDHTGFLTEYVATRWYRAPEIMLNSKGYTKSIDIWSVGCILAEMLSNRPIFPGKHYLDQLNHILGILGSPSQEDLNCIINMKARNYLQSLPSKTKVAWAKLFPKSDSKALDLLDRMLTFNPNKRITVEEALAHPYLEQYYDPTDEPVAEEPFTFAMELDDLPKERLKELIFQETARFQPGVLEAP
Chain of RAC-beta serine/threonine-protein kinase (Homo sapiens) (P31751 whole entry): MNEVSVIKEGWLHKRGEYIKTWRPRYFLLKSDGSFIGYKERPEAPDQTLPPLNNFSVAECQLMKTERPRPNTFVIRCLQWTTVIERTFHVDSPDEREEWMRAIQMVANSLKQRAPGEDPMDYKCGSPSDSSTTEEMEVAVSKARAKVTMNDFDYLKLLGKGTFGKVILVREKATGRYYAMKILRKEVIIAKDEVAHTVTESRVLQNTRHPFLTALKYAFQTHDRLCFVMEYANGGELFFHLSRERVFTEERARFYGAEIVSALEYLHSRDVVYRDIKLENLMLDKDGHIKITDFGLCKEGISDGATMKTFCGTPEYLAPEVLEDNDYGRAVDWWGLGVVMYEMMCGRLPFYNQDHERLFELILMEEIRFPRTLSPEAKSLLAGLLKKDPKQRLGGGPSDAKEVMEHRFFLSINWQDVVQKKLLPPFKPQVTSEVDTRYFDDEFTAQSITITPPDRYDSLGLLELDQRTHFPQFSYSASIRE
Chain of Calcium/calmodulin-dependent protein kinase type 1 (Homo sapiens) (Q14012 whole entry, looked up): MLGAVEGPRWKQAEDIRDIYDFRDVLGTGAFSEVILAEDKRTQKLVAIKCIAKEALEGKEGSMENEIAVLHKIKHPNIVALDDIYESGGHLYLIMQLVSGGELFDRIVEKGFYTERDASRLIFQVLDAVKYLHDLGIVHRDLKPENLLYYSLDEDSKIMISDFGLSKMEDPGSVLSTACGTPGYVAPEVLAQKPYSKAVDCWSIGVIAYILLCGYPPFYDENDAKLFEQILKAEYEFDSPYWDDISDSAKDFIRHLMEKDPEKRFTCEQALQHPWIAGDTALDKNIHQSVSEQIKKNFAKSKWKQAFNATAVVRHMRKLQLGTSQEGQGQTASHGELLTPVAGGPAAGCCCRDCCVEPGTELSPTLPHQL
Chain of MAP kinase-interacting serine/threonine-protein kinase 1 (Homo sapiens) (Q9BUB5 whole entry, looked up): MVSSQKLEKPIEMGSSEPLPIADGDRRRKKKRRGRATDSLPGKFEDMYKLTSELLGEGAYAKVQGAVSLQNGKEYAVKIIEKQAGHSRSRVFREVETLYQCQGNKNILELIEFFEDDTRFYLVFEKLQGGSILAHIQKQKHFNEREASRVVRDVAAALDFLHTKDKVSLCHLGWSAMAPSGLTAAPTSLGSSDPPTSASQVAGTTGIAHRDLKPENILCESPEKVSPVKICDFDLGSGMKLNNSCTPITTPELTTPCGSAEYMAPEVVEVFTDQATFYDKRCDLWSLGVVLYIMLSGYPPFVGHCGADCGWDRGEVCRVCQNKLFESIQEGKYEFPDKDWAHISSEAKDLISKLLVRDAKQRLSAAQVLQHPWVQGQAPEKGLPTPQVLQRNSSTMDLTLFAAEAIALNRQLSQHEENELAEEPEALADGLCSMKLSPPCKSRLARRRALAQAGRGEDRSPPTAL
Chain of Serine/threonine-protein kinase pim-2 (Q9P1W9 whole entry, looked up): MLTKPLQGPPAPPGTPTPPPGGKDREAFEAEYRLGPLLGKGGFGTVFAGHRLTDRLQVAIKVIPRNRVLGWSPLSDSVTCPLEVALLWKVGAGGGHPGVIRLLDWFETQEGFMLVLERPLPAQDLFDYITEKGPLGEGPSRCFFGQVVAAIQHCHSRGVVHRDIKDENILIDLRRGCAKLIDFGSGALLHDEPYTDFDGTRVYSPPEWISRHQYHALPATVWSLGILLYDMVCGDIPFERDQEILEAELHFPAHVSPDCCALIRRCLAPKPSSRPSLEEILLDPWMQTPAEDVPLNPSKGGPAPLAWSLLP
Chain of Rho-associated protein kinase 2 (Homo sapiens) (O75116 whole entry, looked up): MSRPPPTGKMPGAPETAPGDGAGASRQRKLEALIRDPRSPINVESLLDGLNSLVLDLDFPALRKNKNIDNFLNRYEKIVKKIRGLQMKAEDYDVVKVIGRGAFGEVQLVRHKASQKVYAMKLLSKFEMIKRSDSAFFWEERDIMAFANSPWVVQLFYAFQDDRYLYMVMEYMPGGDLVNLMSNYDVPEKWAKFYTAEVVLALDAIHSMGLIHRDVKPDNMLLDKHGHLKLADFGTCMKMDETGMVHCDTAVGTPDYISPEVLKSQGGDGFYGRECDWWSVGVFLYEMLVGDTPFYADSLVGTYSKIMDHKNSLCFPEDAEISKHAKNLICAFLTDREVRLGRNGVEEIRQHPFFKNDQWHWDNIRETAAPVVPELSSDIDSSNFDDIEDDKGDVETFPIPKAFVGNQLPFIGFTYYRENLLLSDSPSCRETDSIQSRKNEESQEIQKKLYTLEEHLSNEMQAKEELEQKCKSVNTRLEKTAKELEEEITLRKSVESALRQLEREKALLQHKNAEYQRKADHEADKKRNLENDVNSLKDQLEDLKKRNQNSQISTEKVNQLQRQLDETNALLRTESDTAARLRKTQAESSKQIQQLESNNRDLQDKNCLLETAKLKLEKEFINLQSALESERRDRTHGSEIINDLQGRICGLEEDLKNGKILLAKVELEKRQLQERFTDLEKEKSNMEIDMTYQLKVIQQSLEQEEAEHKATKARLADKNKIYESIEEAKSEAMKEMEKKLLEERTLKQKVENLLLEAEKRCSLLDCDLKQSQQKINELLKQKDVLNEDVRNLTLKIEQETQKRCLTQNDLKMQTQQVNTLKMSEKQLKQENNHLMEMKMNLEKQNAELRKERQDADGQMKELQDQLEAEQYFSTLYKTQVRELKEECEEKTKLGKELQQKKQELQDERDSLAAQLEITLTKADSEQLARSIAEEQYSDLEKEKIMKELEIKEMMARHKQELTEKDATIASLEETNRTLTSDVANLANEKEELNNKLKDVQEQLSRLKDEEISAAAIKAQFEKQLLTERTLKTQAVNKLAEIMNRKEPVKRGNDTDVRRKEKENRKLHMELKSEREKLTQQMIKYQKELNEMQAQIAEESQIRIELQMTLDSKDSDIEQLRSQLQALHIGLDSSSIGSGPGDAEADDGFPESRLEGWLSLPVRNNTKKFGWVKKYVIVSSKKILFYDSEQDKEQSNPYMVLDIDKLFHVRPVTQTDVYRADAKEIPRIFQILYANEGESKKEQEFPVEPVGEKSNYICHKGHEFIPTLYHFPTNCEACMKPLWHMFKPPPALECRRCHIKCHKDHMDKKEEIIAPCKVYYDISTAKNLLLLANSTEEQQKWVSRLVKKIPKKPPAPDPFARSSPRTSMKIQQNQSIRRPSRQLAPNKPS

Compound | Activity [1] [%] | Activity [2] [%] | Activity [3] [%] | Activity [4] [%] | Activity [5] [%] | Activity [6] [%] | Activity [7] [%] | Activity [8] [%] | Activity [9] [%] | Activity [10] [%] | Activity [11] [%] | Activity [12] [%] | Activity [13] [%] | Activity [14] [%] | Activity [15] [%] | Activity [16] [%]
Cn1cc(C2=C(c3ccc(Cl)cc3Cl)C(=O)NC2=O)c2ccccc21 | 81 | 94 | 83 | 98 | 92 | 50 | – | – | – | – | – | – | – | – | – | –
Cc1ccc(-c2c(C(=O)CF)n(CCCO)c3ncnc(N)c23)cc1 | – | – | – | – | – | – | 42 | 97 | 77 | 85 | 83 | 92 | 86 | 65 | 86 | 91
